{
  "source": "patent US20120004193A1",
  "about": "“PROCESS FOR PRODUCTION OF ORALLY INGESTIBLE COMPOSITION CONTAINING ARABINOFURANOSYL VITEXIN, AND USE OF THE COMPOSITION” (Fuji Sangyo Co., Ltd., priority 2009, published 2012)",
  "system": "ICR mice",
  "assay": "Sedative and sleep-inducing activities in thiopental sodium-treated mice",
  "type": "in vivo, mouse",
  "conditions": "100 mg/kg body weight oral, thiopental sodium 30 mg/kg i.p. 45 minutes later, measured over 40 minutes, compared with negative control group, p<0.01 (Dunnet)",
  "protocol": "The arabinofuranosyl vitexin-isolated product obtained in the above-mentioned procedure (1) was used to study sedative and sleep-inducing effects. A sample was orally administered to six ICR mice (body weight: 40 to 45 g).\nAs the sample, the ‘arabinofuranosyl vitexin (100 mg/kg body weight)’ dissolved in physiological saline was orally administered. It should be noted that ‘diazepam (2 mg/kg body weight)’ having a sleep-inducing effect was dissolved in physiological saline and orally administered as a positive control, and ‘physiological saline alone’ was orally administered as a negative control.\nThen, 45 minutes after the oral administration of the sample, thiopental sodium (30 mg/kg body weight) […] was administered intraperitoneally, and the mice were individually placed in mouse cages (17 cm×27 cm).\nIn a period from the start of the administration of thiopental sodium to 40 minutes later, a total time when a mouse stopped moving for one or more minutes and got in a sleep state was measured to evaluate the sedative and sleep-inducing effects.\nIt should be noted that the symbol in FIG. 2 represents that there is a significant difference compared with the negative control group at a risk rate of less than 1% (p<0.01) by a Dunnet multiple comparison assay.",
  "data": [
    {"compound": "O=c1cc(-c2ccc(O)cc2)oc2c(C3OC(CO)C(O)C(O)C3OC3OC(CO)C(O)C3O)c(O)cc(O)c12", "note": "[arabinofuranosyl vitexin, 2″-O-α-D-arabinofuranosyl vitexin]", "values": [
      {"measurement": "sedation and sleeping times (total time when a mouse stopped moving for one or more minutes and got in a sleep state)", "result": "extended significantly"}
    ]}
  ]
}
